Measurements from US10463040B2, “Composition comprising a pesticide and isononanoic acid N,N-dimethyl amide” (BASF SE, priority 2015, dated 2019).

Columns and labels:
wheat and black bindweed = assay: Phytotoxicity laboratory test: plants treated with 2 g of a 1% emulsion, evaluated visually after 3 days; type: in vivo
Description: No phytotoxicity in the context of the present invention means that in comparison to untreated plants, 0% of the treated plants have plant injury according to the phytotoxicity method described below.
Phytotoxicity in accordance with the present invention is determined by an assay where e.g. wheat (grasses) or black bindweed (broad leave), are treated with 2 g of a 1% Emulsion described below and are visually evaluated after 3 days of incubation. Plant injury covers the assessment of leave condition as well as resistance to lodging in case of grasses.
The emulsion is prepared by mixing 1% of concentrate with water. The concentrate consists of 7.5% of castor oil ethoxylate (30 EO), 2.5% Ca-Dodecylbenzolsulfonate and 90% carboxylic acid amide. The experimental period lasts for 3 days. During this time, the experimental plants receive optimum watering, with nutrients being supplied via the water used for watering.
The phytotoxicity is evaluated by awarding scores to the treated plants in comparison to untreated plants, i.e. treated with water only. The evaluation scale ranges from 0% to 100% phytotoxicity. The evaluation is done by visual examination. 0% phytotoxicity means that there are no differences between treated and untreated plants. […]
Plants, i.e. wheat and black bindweed, were treated with 2 g of a 1% Emulsion described below and were visually evaluated after 3 days of incubation. […]

[1] = Emulsion stability: 5% of the emulsion concentrate diluted in CIPAC water D, ml cream after 1, 2, 4 and 24 h; type: physicochemical; parameters: key to Emulsion 5% in Cipac D 2 h / Emulsion 5% in Cipac D 4 h / Emulsion 5% in Cipac D 1 h / Emulsion 5% in Cipac D 24 h: stable = no cream; conditions: for Emulsion 5% in Cipac D 1 h / Emulsion 5% in Cipac D 2 h / Emulsion 5% in Cipac D 4 h / Emulsion 5% in Cipac D 24 h: amide 63%; for Stability of the emulsion comprising the amide: summary in words of Example 4
Description: Stable in the context of the present invention means that no cream has formed within 24 hours after mixing components of a formulation. To measure the stability, 5% of the formulation (emulsion concentrate) is diluted in CIPAC water D in a 100 ml cylinder. The resulting oil-in-water emulsion is assessed after 1, 2, 4 and 24 hours.

[2] = Determination of the max. solubility of fungicide/herbicide in the carboxylic acid amide (quantitative 1H-NMR of supernatant); type: physicochemical
Description: The respective fungicide/herbicide was dissolved in the solvent of interest so that a supersaturated solution was obtained. The deposit was filtered off. The concentration of the fungicide/herbicide in the supernatant was determined via quantitative 1H-NMR spectroscopy.

[3] = Formulation: Oxyfluorfen 25%, Ca Dodecylbenzolsulfonat 2%, Castor oil ethoxylate (35 EO) 10%
[4] = Formulation: Oxyfluorfen 25%, Castor oil ethoxylate (35 EO) 12%
[5] = Formulation: Tebuconazol 25%, Ca Dodecylbenzolsulfonat 2%, Castor oil ethoxylate (35 EO) 10%
[6] = Formulation: Tebuconazol 25%, Castor oil ethoxylate (35 EO) 12%

SMILES	Emulsion 5% in Cipac D 1 h [1, 3]	Emulsion 5% in Cipac D 2 h [1, 3]	Emulsion 5% in Cipac D 4 h [1, 3]	Emulsion 5% in Cipac D 24 h [1, 3] [ml cream]	Emulsion 5% in Cipac D 1 h [1, 4]	Emulsion 5% in Cipac D 2 h [1, 4]	Emulsion 5% in Cipac D 4 h [1, 4]	Emulsion 5% in Cipac D 24 h [1, 4]	Emulsion 5% in Cipac D 1 h [1, 5]	Emulsion 5% in Cipac D 2 h [1, 5]	Emulsion 5% in Cipac D 4 h [1, 5]	Emulsion 5% in Cipac D 24 h [1, 5] [ml cream]	Emulsion 5% in Cipac D 1 h [1, 6]	Emulsion 5% in Cipac D 2 h [1, 6]	Emulsion 5% in Cipac D 4 h [1, 6] [ml cream]	Emulsion 5% in Cipac D 24 h [1, 6] [ml cream]	Stability of the emulsion comprising the amide [1]	also measured
CC(CC(=O)N(C)C)CC(C)(C)C (stereo not drawn) [Isononanoic acid N,N-dimethylamide, isononanoic acid N,N-dimethylamide]	stable	stable	stable	0.5	stable	stable	stable	stable	stable	stable	stable	0.5	stable	stable	0.5	0.5	stable	Phytotoxicity (wheat and black bindweed; 3 days after treatment, 1% emulsion of concentrate (7.5% castor oil ethoxylate (30 EO), 2.5% Ca-Dodecylbenzolsulfonate, 90% amide), wheat and black bindweed): 0 (0 means no damage); Phytotoxic effect on plants (wheat and black bindweed; statement in words in the description): no phytotoxic effect
CCCCCCCCC(=O)N(C)C [n-C9 N,N-dimethylamide]	0.5 ml cream	3 ml cream	4.0 ml cream	6	0.5 ml cream	1 ml cream	4.0 ml cream	6 ml cream	3.0 ml cream	8 ml cream	8.0 ml cream	8	stable	2 ml cream	3.0	3	unstable	Solubility [%] Oxyfluorfen [2]: 34%; Solubility [%] Pyraclostrobin [2]: 46%; Solubility [%] Tebuconazole [2]: 42%
